According to ChEMBL document CHEMBL5149974, “Antimicrobial drugs bearing guanidine moieties: A review” (Eur J Med Chem, 2021):
In brackets after ≈: the same amount, converted by molar mass.

Tests used:
[1] = system: Mycolicibacterium smegmatis; assay: Potentiation of cefotaxime-induced antibacterial activity against Mycobacterium smegmatis assessed as cefotaxime MIC incubated for 48 hrs by alamar blue assay (reference value: 64 ug/ml); type: functional
[2] = system: Mycobacterium tuberculosis; assay: Anti-mycobacterial activity against Mycobacterium tuberculosis H37Rv assessed as bacterial growth inhibition incubated for 7 days by REMA assay; type: functional; details: 168 h, time 7 day
[3] = system: Escherichia coli; assay: Antibacterial activity against Escherichia coli assessed as bacterial growth inhibition incubated for 18 to 24 hrs by broth microdilution assay; type: functional; details: time 18-24 hrs
[4] = system: Staphylococcus aureus; assay: Antibacterial activity against Staphylococcus aureus assessed as bacterial growth inhibition incubated for 18 to 24 hrs by broth microdilution assay; type: functional; details: time 18-24 hrs
[5] = system: Staphylococcus aureus; assay: Antibacterial activity against methicillin-resistant Staphylococcus aureus ATCC 33591 assessed as bacterial growth inhibition by CLSI based broth microdilution method; type: functional
[6] = system: Mycobacterium tuberculosis; assay: Anti-mycobacterial activity against Mycobacterium tuberculosis H37Rv ATCC […] assessed as bacterial growth inhibition by alamar blue assay; type: functional
[7] = system: Escherichia coli; assay: Antibacterial activity against Escherichia coli assessed as bacterial growth inhibition incubated for 24 hrs; type: functional
[8] = system: Pseudomonas aeruginosa; assay: Antibacterial activity against Pseudomonas aeruginosa assessed as bacterial growth inhibition; type: functional
[9] = system: Staphylococcus aureus; assay: Antibacterial activity against methicillin-resistant Staphylococcus aureus assessed as bacterial growth inhibition; type: functional
[10] = system: Staphylococcus epidermidis; assay: Antibacterial activity against methicillin-resistant Staphylococcus epidermidis assessed as bacterial growth inhibition; type: functional
[11] = system: Escherichia coli; assay: Antibacterial activity against Escherichia coli assessed as bacterial growth inhibition; type: functional
[12] = system: Klebsiella pneumoniae; assay: Antibacterial activity against Klebsiella pneumoniae assessed as bacterial growth inhibition; type: functional
[13] = system: Clostridioides difficile; assay: Antibacterial activity against Clostridium difficile assessed as bacterial growth inhibition incubated for 24 hrs; type: functional
[14] = system: Enterococcus faecalis; assay: Antibacterial activity against vancomycin-resistant Enterococcus faecalis assessed as bacterial growth inhibition; type: functional
[15] = system: Staphylococcus aureus; assay: Antibacterial activity against Staphylococcus aureus assessed as bacterial growth inhibition incubated for 24 hrs; type: functional
[16] = Inhibition of Mycobacterium smegmatis biofilm fromation incubated for 48 hrs by crystal violet staining based analysis; type: functional, Mycolicibacterium smegmatis
[17] = system: Plasmodium falciparum; assay: Antiplasmodial activity against Plasmodium falciparum; type: functional, organism-based
[18] = system: Mycobacterium tuberculosis; assay: Potentiation of isoniazid-induced antimycobacterial activity against Mycobacterium tuberculosis H37Rv assessed as reduction in isoniazid MIC at 125 uM incubated for 48 hrs by alamar blue staining based analysis; type: functional
[19] = system: Mycobacterium tuberculosis; assay: Potentiation of isoniazid-induced antimycobacterial activity against Mycobacterium tuberculosis H37Rv assessed as reduction in isoniazid MIC at 250 uM incubated for 48 hrs by alamar blue staining based analysis; type: functional
[20] = system: Nakaseomyces glabratus; assay: Synergistic antifungal activity against Candida glabrata assessed as fractional inhibitory concentration index in presence of voriconazole incubated for 18 hrs by checkerboard assay; type: functional
[21] = system: Nakaseomyces glabratus; assay: Synergistic antifungal activity against Candida glabrata assessed as fractional inhibitory concentration index in presence of fluconazole incubated for 18 hrs by checkerboard assay; type: functional
[22] = system: Nakaseomyces glabratus; assay: Synergistic antifungal activity against Candida glabrata assessed as fractional inhibitory concentration index in presence of amphotericin incubated for 18 hrs by checkerboard assay; type: functional
[23] = system: Mycobacterium tuberculosis; assay: Anti-mycobacterial activity against Mycobacterium tuberculosis H37Rv assessed as growth inhibition incubated for 48 hrs by alamar blue staining based analysis; type: functional

CCCCCCCC(NC(=O)CCCc1c[nH]c(N)n1)c1ccccc1 (stereo unspecified)
MIC [1]: 2 µg/mL

COc1ccc(C2C(C(C)=O)=C(C)Nc3nc(N)[nH]c(=O)c32)cc1OC (stereo unspecified)
MIC [2]: 1.95 µg/mL (≈ 5.47 µM)

N=C(N)NCCNC(=O)[C@H](Cc1c[nH]c2ccccc12)NC(=O)c1cc(Br)ccc1NC(=O)c1ccc2ccccc2c1
MIC [3]: 15.6 µM (≈ 9.99 µg/mL) | MIC [4]: 2 µM (≈ 1.28 µg/mL)

N=C(N)NC[C@H]1OC(O[C@@H]2[C@@H](O)[C@H](O[C@H]3O[C@H](CN)[C@@H](O)[C@H](O)[C@H]3O)[C@@H](N)C[C@H]2N)[C@H](O)[C@@H](N)[C@@H]1O (stereo partly specified)
MIC [5]: 3.12 µg/mL (≈ 5.95 µM)

Cc1nn(-c2ccccc2)c(Cl)c1-c1nc(N)nc2c1c(C)nn2-c1ccccc1Cl
MIC [6]: 1.2 µg/mL (≈ 2.66 µM)

COC(=O)C(CCCCNC(=N)N)NC(=O)C(=O)c1cc(Br)ccc1NC(=O)c1ccc2ccccc2c1.Cl (stereo unspecified)
MIC [7]: 19 µg/mL

CCCCCCN1C(=N)N(CC(=O)Nc2cccc(NC(=O)CN3C[C@H](Cc4ccccc4)N(CCCCCC)C3=N)c2)C[C@@H]1Cc1ccccc1
MIC [8]: 4 µg/mL (≈ 5.66 µM) | MIC [9]: 0.16 µg/mL (≈ 0.226 µM) | MIC [10]: 0.75 µg/mL (≈ 1.06 µM) | MIC [11]: 0.75 µg/mL (≈ 1.06 µM) | MIC [12]: 0.75 µg/mL (≈ 1.06 µM) | MIC [13]: 1 µg/mL (≈ 1.41 µM) | MIC [14]: 0.75 µg/mL (≈ 1.06 µM)

COC(=O)C(CCCNC(=N)N)NC(=O)C(CCCCNC(=N)N)NC(=O)C(=O)c1cc(Br)ccc1NC(=O)c1ccc2ccccc2c1.Cl.Cl (stereo unspecified)
MIC [15]: 10 µg/mL

CCCCCOc1ccc(-c2nc(N)[nH]c2C(F)(F)F)cc1
IC50 [16]: < 10 µM

CCC/C=C\CCC[C@@H]1C2N=C(N)N[C@H]3CC[C@@H](C[C@H]1CCC)C23 (stereo partly specified)
IC50 [17]: 8.37 µM

N=C(N)NCCNC(=O)[C@H](Cc1c[nH]c2ccccc12)NC(=O)c1cc(F)ccc1NC(=O)c1ccc2ccccc2c1
MIC [4]: 2 µM (≈ 1.16 µg/mL)

CCCCCCc1ccc(-c2nc(N)[nH]c2C(F)(F)F)cc1
IC50 [16]: < 10 µM

CCCCCCC(CCCCCC)NC(=O)CCCc1c[nH]c(N)n1
MIC [18]: 0.039 µg/mL | MIC [19]: 0.039 µg/mL

CCCCNC(=N)NC(=N)N [BUFORMIN]
fractional inhibitory concentration index (FICI) [20]: 0.5 | fractional inhibitory concentration index (FICI) [21]: 0.5 | fractional inhibitory concentration index (FICI) [22]: 0.5

NNC(=O)c1ccncc1 [ISONIAZID]
MIC [23]: 0.625 µg/mL (≈ 4.56 µM)

CN(C)C(=N)NC(=N)N [METFORMIN]
fractional inhibitory concentration index (FICI) [20]: 0.5 | fractional inhibitory concentration index (FICI) [21]: 0.5 | fractional inhibitory concentration index (FICI) [22]: 0.5

N=C(N)NC(=N)NCCc1ccccc1 [PHENFORMIN]
fractional inhibitory concentration index (FICI) [20]: 0.5 | fractional inhibitory concentration index (FICI) [21]: 0.5 | fractional inhibitory concentration index (FICI) [22]: 0.5
